# Laboratory results from patent US7998985B2, “1,5-diphenyl-3-pyridinylamino-1,5-dihydropyrrolidin-2-one as CB1 receptor modulator” (Eli Lilly and Company, priority 2006, dated 2011).
# How the values were obtained:
# [1] = system: Male Sprague Dawley rats; assay: cFos activation in rat brain, alone and with clozapine; format: in vivo
# Text: Characterize Example 2 for its ability to activate gene expression and neurochemical efflux in cortical and subcortical regions and to interact with the prototypical atypical antipsychotic agent clozapine.
# Methods: House Male Sprague Dawley rats (155-175 g) for 1 week prior to experimentation. Prepare Example 2 in a vehicle suspension of 1% Sodium carboxymethyl cellulose, 0.5% Sodium lauryl sulfate, 0.05% Antifoam, 0.085% Povidone and administer, to rats (e.g., male Sprague Dawley rats, 155-175 g) p.o. (a dose of 1 or 10 mg/kg). Control rats receive vehicle. Administer clozapine (Sigma) 1 hour later at a concentration of 8 mg/mL in a vehicle solution of 0.4% lactic acid at a dose of 8 mg/kg s.c. Sacrifice animals (n=7-8 per group) by decapitation 2 hours after administration of clozapine or vehicle for clozapine. Remove rapidly whole brains and immediately immerse in isopentane (2-methyl butane) over dry ice. Cut coronal sections through the prefrontal cortex (PFC), nucleus accumbens (NAc) and dorsolateral striatum (DL-Str) at 14 μm and perform Fos immunohistochemistry. Assess atypicality index (Robertson et al., 1994) using the following formula: Atypical Index=(NAcD−NAcV)−(DL-StrD−DL-StrV) where the average number of Fos-li neurons in NAc=nucleus accumbens, D=drug, V=vehicle, DL-Str=dorsolateral striatum. Analyze data using a one-way ANOVA followed by Newman-Keul's post hoc test (Graph Pad Prism 4.03). Set the level of significance at P<0.05.
# [2] = system: alcohol-preferring (P) rats; assay: 12-hour ethanol consumption in alcohol-preferring rats (P rats); format: in vivo, rat; conditions: female P rats, 15% (v/v) ethanol, continuous free access; Example 2 given p.o.
# Text: Evaluate Example 2 for its ability to reduce consumption of ethanol in rats selectively bred for high oral ethanol intake (P rats). In addition, study the effects of Example 2 under conditions in which effects of the compound on motivation or the control of behavior by ethanol could be assessed.
# Methods: Study the effects of Example 2 on female, alcohol-preferring (P) rats on alcohol consumption under a continuous free access paradigm. For comparative purposes test the standard opioid antagonist naltrexone. Monitor voluntary consumption of 15% (v/v) ethanol. Suspend Example 2 in vehicle (1% CMC, 0.5% SLS, 0.08% povidone, 0.05% Dow Corning antifoam 1510 US) and give p.o. 3 hours prior to the onset of the dark cycle. In addition, measure locomotor activity via infrared sensor.
smiles,measurement,setting,value
"CC(C)(N[C@@H]1C[C@H](c2cccc(OC(F)(F)F)c2)N(c2ccc(C(F)(F)F)cc2)C1=O)c1ccc(C(F)(F)F)nc1.Cc1ccc(S(=O)(=O)O)cc1 [Example 2, (3R,5R)-3-[1-methyl-1-(6-trifluoromethyl-pyridin-3-yl)-ethylamino]-1-(4-trifluoromethyl-phenyl)-5-(3-trifluoromethoxy-phenyl)-pyrrolidin-2-one, 4-methylbenzenesulfonate (1:1)]",effect on clozapine-induced Fos reactivity,[1]; 1 and 10 mg/kg p.o. given with clozapine 8 mg/kg s.c.,enhancing the effects of clozapine alone
same,"cortical and subcortical Fos reactivity, compound alone",[1]; Example 2 1 or 10 mg/kg p.o.,tend to or significantly enhance cortical and subcortical Fos reactivity
same,atypicality (ventral vs. dorsal striatal Fos impact),[1]; Example 2 added to clozapine,a neural signature of greater atypicality
same,consumption of ethanol,[2],decreased in a dose-dependent manner
